Measurements taken from ChEMBL document CHEMBL1125863, “New aromatase inhibitors. Synthesis and biological activity of pyridyl-substituted tetralone derivatives” (J Med Chem, 1991).
Where “and” joins values, the source holds several entries; their conditions need not be identical. Equal values may be shown once.

Columns and labels:
Rattus norvegicus [1] = species: Rattus norvegicus; assay type: functional; conditions: dose 20 mg/kg
Rattus norvegicus [2] = species: Rattus norvegicus; assay type: functional; conditions: dose 20 mg/kg; remark: listed apart in the source
Rattus norvegicus [3] = species: Rattus norvegicus; assay type: functional; conditions: dose 20 mg/kg; remark: listed apart in the source
Rattus norvegicus [4] = species: Rattus norvegicus; assay type: functional; conditions: dose 20 mg/kg; remark: listed apart in the source
Rattus norvegicus [5] = species: Rattus norvegicus; assay type: functional; conditions: dose 20 mg/kg; remark: listed apart in the source
Rattus norvegicus [6] = species: Rattus norvegicus; assay type: functional; conditions: dose 20 mg/kg; remark: listed apart in the source
Rattus norvegicus [7] = species: Rattus norvegicus; assay type: functional; conditions: dose 20 mg/kg; remark: listed apart in the source
Rattus norvegicus [8] = species: Rattus norvegicus; assay type: functional; conditions: dose 10.2 mg/kg
Rattus norvegicus [9] = species: Rattus norvegicus; assay type: functional; conditions: dose 10.2 mg/kg; remark: listed apart in the source
Rattus norvegicus [10] = species: Rattus norvegicus; assay type: functional; conditions: dose 10.2 mg/kg; remark: listed apart in the source
Rattus norvegicus [11] = species: Rattus norvegicus; assay type: functional; conditions: dose 10.2 mg/kg; remark: listed apart in the source
Rattus norvegicus [12] = species: Rattus norvegicus; assay type: functional; conditions: dose 10.2 mg/kg; remark: listed apart in the source
Rattus norvegicus [13] = species: Rattus norvegicus; assay type: functional; conditions: dose 10.2 mg/kg; remark: listed apart in the source
Rattus norvegicus [14] = species: Rattus norvegicus; assay type: functional; conditions: dose 10.2 mg/kg; remark: listed apart in the source
Rattus norvegicus [15] = species: Rattus norvegicus; assay type: functional; conditions: dose 11.5 mg/kg
Rattus norvegicus [16] = species: Rattus norvegicus; assay type: functional; conditions: dose 11.5 mg/kg; remark: listed apart in the source
Rattus norvegicus [17] = species: Rattus norvegicus; assay type: functional; conditions: dose 11.5 mg/kg; remark: listed apart in the source
Rattus norvegicus [18] = species: Rattus norvegicus; assay type: functional; conditions: dose 11.5 mg/kg; remark: listed apart in the source
Rattus norvegicus [19] = species: Rattus norvegicus; assay type: functional; conditions: dose 11.5 mg/kg; remark: listed apart in the source
Rattus norvegicus [20] = species: Rattus norvegicus; assay type: functional; conditions: dose 11.5 mg/kg; remark: listed apart in the source
Rattus norvegicus [21] = species: Rattus norvegicus; assay type: functional; conditions: dose 11.5 mg/kg; remark: listed apart in the source
Rattus norvegicus [22] = species: Rattus norvegicus; conditions: Ovarian vein
Rattus norvegicus [23] = species: Rattus norvegicus; conditions: Heart right ventricle
Rattus norvegicus [24] = species: Rattus norvegicus; conditions: Heart right ventricle; remark: listed apart in the source
Rattus norvegicus [25] = species: Rattus norvegicus; conditions: Heart right ventricle; remark: listed apart in the source
Rattus norvegicus [26] = species: Rattus norvegicus; conditions: Heart right ventricle; remark: listed apart in the source
Rattus norvegicus [27] = species: Rattus norvegicus; assay type: functional; conditions: dose 10.1 mg/kg
Rattus norvegicus [28] = species: Rattus norvegicus; assay type: functional; conditions: dose 10 mg/kg
Rattus norvegicus [29] = species: Rattus norvegicus; assay type: functional; conditions: dose 10.1 mg/kg; remark: listed apart in the source
Rattus norvegicus [30] = species: Rattus norvegicus; assay type: functional; conditions: dose 10.1 mg/kg; remark: listed apart in the source
Rattus norvegicus [31] = species: Rattus norvegicus; assay type: functional; conditions: dose 10.1 mg/kg; remark: listed apart in the source
Rattus norvegicus [32] = species: Rattus norvegicus; assay type: functional; conditions: dose 10.1 mg/kg; remark: listed apart in the source
Rattus norvegicus [33] = species: Rattus norvegicus; assay type: functional; conditions: dose 10.1 mg/kg; remark: listed apart in the source
Aromatase = target: T1, Aromatase (Rattus norvegicus, UniProt P22443)
T1 sequence (P22443 whole entry): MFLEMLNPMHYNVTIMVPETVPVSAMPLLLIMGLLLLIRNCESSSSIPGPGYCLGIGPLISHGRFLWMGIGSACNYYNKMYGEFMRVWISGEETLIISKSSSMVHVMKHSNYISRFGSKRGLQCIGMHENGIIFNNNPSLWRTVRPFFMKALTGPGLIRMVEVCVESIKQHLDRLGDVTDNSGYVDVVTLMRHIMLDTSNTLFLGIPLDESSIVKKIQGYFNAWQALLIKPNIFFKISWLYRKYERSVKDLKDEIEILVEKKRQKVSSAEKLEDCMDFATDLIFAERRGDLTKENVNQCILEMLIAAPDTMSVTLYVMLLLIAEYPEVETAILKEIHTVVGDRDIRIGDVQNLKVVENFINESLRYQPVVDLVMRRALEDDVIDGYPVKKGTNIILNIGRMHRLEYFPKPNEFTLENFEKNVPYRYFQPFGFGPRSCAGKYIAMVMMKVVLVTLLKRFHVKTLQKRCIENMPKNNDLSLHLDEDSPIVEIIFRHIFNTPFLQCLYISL

Rattus norvegicus [34] = species: Rattus norvegicus; assay type: functional; conditions: dose 10.9 mg/kg
Rattus norvegicus [35] = species: Rattus norvegicus; assay type: functional; conditions: dose 10.9 mg/kg; remark: listed apart in the source
Rattus norvegicus [36] = species: Rattus norvegicus; assay type: functional; conditions: dose 10.9 mg/kg; remark: listed apart in the source
Rattus norvegicus [37] = species: Rattus norvegicus; assay type: functional; conditions: dose 10.9 mg/kg; remark: listed apart in the source
Rattus norvegicus [38] = species: Rattus norvegicus; assay type: functional; conditions: dose 10.9 mg/kg; remark: listed apart in the source
Rattus norvegicus [39] = species: Rattus norvegicus; assay type: functional; conditions: dose 10.9 mg/kg; remark: listed apart in the source
Rattus norvegicus [40] = species: Rattus norvegicus; assay type: functional; conditions: dose 10.9 mg/kg; remark: listed apart in the source
Rattus norvegicus [41] = species: Rattus norvegicus; conditions: Heart right ventricle; remark: listed apart in the source
Rattus norvegicus [42] = species: Rattus norvegicus; conditions: Heart right ventricle; remark: listed apart in the source
Rattus norvegicus [43] = species: Rattus norvegicus; conditions: Heart right ventricle; remark: listed apart in the source
Rattus norvegicus [44] = species: Rattus norvegicus; conditions: Heart right ventricle; remark: listed apart in the source
Rattus norvegicus [45] = species: Rattus norvegicus; conditions: Heart right ventricle; remark: listed apart in the source
Rattus norvegicus [46] = species: Rattus norvegicus; conditions: Heart right ventricle; remark: listed apart in the source
Rattus norvegicus [47] = species: Rattus norvegicus; conditions: Heart right ventricle; remark: listed apart in the source
Rattus norvegicus [48] = species: Rattus norvegicus; conditions: Heart right ventricle; remark: listed apart in the source
Rattus norvegicus [49] = species: Rattus norvegicus; conditions: Heart right ventricle; remark: listed apart in the source
Rattus norvegicus [50] = species: Rattus norvegicus; assay type: functional; conditions: dose 10 mg/kg; remark: listed apart in the source
Rattus norvegicus [51] = species: Rattus norvegicus; assay type: functional; conditions: dose 10 mg/kg; remark: listed apart in the source
Rattus norvegicus [52] = species: Rattus norvegicus; assay type: functional; conditions: dose 10 mg/kg; remark: listed apart in the source
Rattus norvegicus [53] = species: Rattus norvegicus; assay type: functional; conditions: dose 10 mg/kg; remark: listed apart in the source
Rattus norvegicus [54] = species: Rattus norvegicus; assay type: functional; conditions: dose 10 mg/kg; remark: listed apart in the source
Rattus norvegicus [55] = species: Rattus norvegicus; assay type: functional; conditions: dose 10 mg/kg; remark: listed apart in the source
Rattus norvegicus [56] = species: Rattus norvegicus; assay type: functional; conditions: dose 11.4 mg/kg
Rattus norvegicus [57] = species: Rattus norvegicus; assay type: functional; conditions: dose 11.4 mg/kg; remark: listed apart in the source
Rattus norvegicus [58] = species: Rattus norvegicus; assay type: functional; conditions: dose 11.4 mg/kg; remark: listed apart in the source
Rattus norvegicus [59] = species: Rattus norvegicus; assay type: functional; conditions: dose 11.4 mg/kg; remark: listed apart in the source
Rattus norvegicus [60] = species: Rattus norvegicus; assay type: functional
Rattus norvegicus [61] = species: Rattus norvegicus; assay type: functional; conditions: dose 11.4 mg/kg; remark: listed apart in the source
Rattus norvegicus [62] = species: Rattus norvegicus; assay type: functional; conditions: dose 11.4 mg/kg; remark: listed apart in the source

With CCC(=O)O[C@H]1CC[C@H]2[C@@H]3CCC4=CC(=O)CC[C@]4(C)[C@H]3CC[C@]12C [TESTOSTERONE PROPIONATE] the No. of tumors (Rattus norvegicus [1]) was 36, the “Change of tumor area” value (Rattus norvegicus [2]) was 141% and the “Tumors with CR” value (Rattus norvegicus [3]) was 36%. For the same molecule, the “Tumors with CR” value (Rattus norvegicus [4]) was 25%, the “Tumors with CR” value (Rattus norvegicus [5]) was 19% and the “Tumors with CR” value (Rattus norvegicus [6]) was 19%. The No. of tumors (Rattus norvegicus [7]) was 12.

In the case of CCC(=O)O[C@H]1CC[C@H]2[C@@H]3CCC4=CC(=O)CC[C@]4(C)[C@H]3CC[C@]12C.O=C1c2ccccc2CCC1Cc1ccncc1, the “Tumors with CR” value (Rattus norvegicus [8]) is reported as 10%, the “Tumors with CR” value (Rattus norvegicus [9]) is reported as 45% and the No. of tumors (Rattus norvegicus [10]) is reported as 31. The “Tumors with CR” value (Rattus norvegicus [11]) was 13%, the “Tumors with CR” value (Rattus norvegicus [12]) was 32% and the No. of tumors (Rattus norvegicus [13]) was 8. For the same molecule, the “Change of tumor area” value (Rattus norvegicus [14]) was 41%.

CCC(=O)O[C@H]1CC[C@H]2[C@@H]3CCC4=CC(=O)CC[C@]4(C)[C@H]3CC[C@]12C.COc1cccc2c1CCC(Cc1ccncc1)C2=O was tested, and the “Tumors with CR” value (Rattus norvegicus [15]) was 35%, the “Tumors with CR” value (Rattus norvegicus [16]) was 29% and the “Tumors with CR” value (Rattus norvegicus [17]) was 24%. The “Tumors with CR” value (Rattus norvegicus [18]) was 12%, the “Change of tumor area” value (Rattus norvegicus [19]) was 50% and the No. of tumors (Rattus norvegicus [20]) was 34. The No. of tumors (Rattus norvegicus [21]) was 11.

In the case of O=C1/C(=C/c2ccncc2)CCc2c(O)cccc21, the Plasma-E2 concentration (Rattus norvegicus [22]) is reported as 4040 pg/mL and the Plasma-E2 concentration (Rattus norvegicus [23]) is reported as 524 pg/mL.

In the case of CCC1(c2ccc(N)cc2)CCC(=O)NC1=O (configuration not stated), the Plasma-E2 concentration (Rattus norvegicus [24]) is reported as 164 pg/mL, the Plasma-E2 concentration (Rattus norvegicus [25]) is reported as 272 pg/mL and the Plasma-E2 concentration (Rattus norvegicus [26]) is reported as 843 pg/mL and 500 pg/mL.

CCC(=O)O[C@H]1CC[C@H]2[C@@H]3CCC4=CC(=O)CC[C@]4(C)[C@H]3CC[C@]12C.O=C1/C(=C/c2ccncc2)CCc2ccccc21 was tested, and the “Tumors with CR” value (Rattus norvegicus [27]) was 40%, the “Change of tumor area” value (Rattus norvegicus [28]) was 2% and the No. of tumors (Rattus norvegicus [29]) was 30. The “Tumors with CR” value (Rattus norvegicus [30]) was 20%, the No. of tumors (Rattus norvegicus [31]) was 6 and the “Tumors with CR” value (Rattus norvegicus [32]) was 20%. The “Tumors with CR” value (Rattus norvegicus [33]) was 20%.

In the case of O=C1c2cccc(O)c2CCC1Cc1ccncc1 (stereo in doubt; 12), the Plasma-E2 concentration (Rattus norvegicus [22]) is reported as 3700 pg/mL, the IC50 (Aromatase) is reported as 2 µM and the Plasma-E2 concentration (Rattus norvegicus [23]) is reported as 472 pg/mL.

With CCC(=O)O[C@H]1CC[C@H]2[C@@H]3CCC4=CC(=O)CC[C@]4(C)[C@H]3CC[C@]12C.O=C1c2cccc(O)c2CCC1Cc1ccncc1 the “Tumors with CR” value (Rattus norvegicus [34]) was 45%, the “Tumors with CR” value (Rattus norvegicus [35]) was 27% and the “Change of tumor area” value (Rattus norvegicus [36]) was 61%. The “Tumors with CR” value (Rattus norvegicus [37]) was 21%, the No. of tumors (Rattus norvegicus [38]) was 33 and the No. of tumors (Rattus norvegicus [39]) was 3. For the same molecule, the “Tumors with CR” value (Rattus norvegicus [40]) was 6%.

Molecule O=C1c2ccccc2CCC1Cc1ccncc1 (configuration not stated) has a Plasma-E2 concentration (Rattus norvegicus [22]) of 3700 pg/mL and a Plasma-E2 concentration (Rattus norvegicus [41]) of 717 pg/mL.

COc1cccc2c1CCC(Cc1ccncc1)C2=O (configuration not stated) showed a Plasma-E2 concentration (Rattus norvegicus [42]) of 894 pg/mL, a Plasma-E2 concentration (Rattus norvegicus [43]) of 851 pg/mL and a Plasma-E2 concentration (Rattus norvegicus [44]) of 1040 pg/mL. It also gave a Plasma-E2 concentration (Rattus norvegicus [45]) of 458 pg/mL, a Plasma-E2 concentration (Rattus norvegicus [46]) of 639 pg/mL and a Plasma-E2 concentration (Rattus norvegicus [47]) of 1250 pg/mL. It also gave a Plasma-E2 concentration (Rattus norvegicus [22]) of 3950 pg/mL, a Plasma-E2 concentration (Rattus norvegicus [48]) of 882 pg/mL and an IC50 (Aromatase) of 8 µM. It also gave a Plasma-E2 concentration (Rattus norvegicus [23]) of 542 pg/mL, a Plasma-E2 concentration (Rattus norvegicus [25]) of 576 pg/mL and a Plasma-E2 concentration (Rattus norvegicus [49]) of 990 pg/mL. For the same molecule, the Plasma-E2 concentration (Rattus norvegicus [26]) was 1460 pg/mL and 902 pg/mL.

CCC(=O)O[C@H]1CC[C@H]2[C@@H]3CCC4=CC(=O)CC[C@]4(C)[C@H]3CC[C@]12C.CCC1(c2ccc(N)cc2)CCC(=O)NC1=O was tested, and the “Tumors with CR” value (Rattus norvegicus [50]) was 6%, the “Tumors with CR” value (Rattus norvegicus [51]) was 17% and the “Change of tumor area” value (Rattus norvegicus [28]) was 4%. The No. of tumors (Rattus norvegicus [52]) was 35, the “Tumors with CR” value (Rattus norvegicus [53]) was 23% and the No. of tumors (Rattus norvegicus [54]) was 7. For the same molecule, the “Tumors with CR” value (Rattus norvegicus [55]) was 54%.

For CCC(=O)O[C@H]1CC[C@H]2[C@@H]3CCC4=CC(=O)CC[C@]4(C)[C@H]3CC[C@]12C.COc1cccc2c1CC/C(=C\c1ccncc1)C2=O, the No. of tumors (Rattus norvegicus [56]) was 28, the “Tumors with CR” value (Rattus norvegicus [57]) was 29% and the “Tumors with CR” value (Rattus norvegicus [58]) was 11%. For the same molecule, the No. of tumors (Rattus norvegicus [59]) was 9, the “Tumors with CR” value (Rattus norvegicus [60]) was 11% and the “Tumors with CR” value (Rattus norvegicus [61]) was 50%. The “Change of tumor area” value (Rattus norvegicus [62]) was 115%.
